Experimental data taken from patent publication US8536132B2, “Lymphatic zip codes in tumors and pre-malignant lesions” (Sanford-Burnham Medical Research Institute, priority 2006, dated 2013).
Entries after “also recorded” stand apart in the source; their conditions may differ. Marks after values point to notes of the source that are not given here. Ends that are not written are not given here. * marks the point of attachment. FITC = O=C1OC2(c3ccc(O)cc3Oc3cc(O)ccc32)c2ccc(NC(=S)*)cc21

What was measured:
[1] = system: C8161 xenografts; assay: In vivo phage homing to C8161 xenograft tumors; parameters: species or system mouse; details: for phage homing to C8161 tumors (in words): i.v. injected phage, C8161 xenograft mice
Protocol: (§1) The following cell lines were maintained in DMEM supplemented with 10% FCS: C8161 human melanoma, MDA-MB-435 human breast cancer, KRIB human osteosarcoma, and human prostate cancer cells PPC1, DU145. LNCaP human prostate cancer cell line was grown in RPMI 1640 medium with 10 mM HEPES, 1 mM sodium pyruvate and 1.5 g/L sodium bicarbonate supplemented with 10% FCS. M12 human prostate cancer cell line was cultured in RPMI 1640 with 5 μg/ml insulin-transferrin-sodium selenite (ITS), 2.5 μg/ml fungizone, 50 μg/ml gentamycin, 0.2 μM dexamethasone, 10 ng/ml epidermal growth factor (EGF), and 5% FCS (Bae et al., 1998). To produce tumors, nude BALB/c and C56BL/6 mice were subcutaneously (C8161, KRIB, and PPC1) or orthotopically ([…], PPC1, DU145, M12, and LNCaP) injected with 1×10^6 tumor cells. Transgenic mouse tumor models included TRAMP prostate cancer, MMTV-PyMT breast cancer, and K14-HPV16 cervical cancer. To initiate cervical carcinogenesis, female K14-HPV16 mice (Arbeit et al., 1994) were treated with 17β-estradiol (E2; (Arbeit et al., 1996; Giraudo et al., 2004). Briefly, one-month-old virgin female transgenic (heterozygous K14-HPV16, 1203#1) and nontransgenic (FVB/n) mice were anesthetized with isoflurane, and continuous release pellets that deliver E2 at doses of 0.05 mg over 60 days (Innovative Research of America, Sarasota, Fla., USA) were implanted subcutaneously in the dorsal back skin. Subsequent pellets were implanted at 3 and 5 months of age for a total of 6 months of hormone treatment. K14-HPV16 mice were maintained in the FVB/n background (FVB/n; The Jackson Laboratory). The mice were maintained in accordance with the University of California, San Francisco (UCSF) institutional guidelines governing the care of laboratory mice. The animal experimentation was approved by Animal Research Committees at UCSF or The Burnham Institute.
(§2) In vivo homing specificity of phage was tested as described (Hoffman, 2004). Briefly, mice bearing tumors were anesthetized and intravenously injected with 5×10^9 pfu of phage. After 7 min, the mice were perfused through the heart with PBS containing 0.5% BSA. The tumor and control organs were dissected from each mouse and the phage were rescued and tittered. For histology analysis, the mice were perfused with 4% PFA 30 min after the injection of phage. Tissues were embedded in Tissue-Tek O.C.T. and 5 μm sections were prepared for phage immunostaining.

[2] = system: KRIB xenografts; assay: In vivo phage homing to KRIB xenografts; parameters: species or system mouse; details: for phage homing to KRIB xenografts (in words): i.v. injected phage
Protocol: as §1, §2

[3] = system: K14-HPV16 skin cancer; assay: In vivo homing to K14-HPV16 skin cancer; parameters: species or system mouse
Protocol: as §1, §2

[4] = system: MDA-MB-435 orthotopic xenografts; assay: In vivo phage homing to MDA-MB-435 orthotopic xenografts; parameters: species or system mouse
Protocol: as §1, §2

[5] = system: MMTV-PyMT breast tumors; assay: In vivo phage homing to MMTV-PyMT breast tumors; parameters: species or system mouse
Protocol: as §1, §2

[6] = system: PPC1 orthotopic xenografts; assay: In vivo phage homing to PPC1 orthotopic xenografts; parameters: species or system mouse
Protocol: as §1, §2

[7] = system: TRAMP prostate tumors; assay: In vivo phage homing to TRAMP prostate tumors; parameters: species or system mouse
Protocol: as §1, §2

[8] = system: cell suspensions prepared from C8161 tumors; assay: Phage binding to cell suspensions prepared from C8161 tumors; type: cell-based, mouse; details: phage clone, ex vivo
[9] = system: C8161 tumors; assay: Tissue distribution of fluorescein-conjugated LSD peptide in C8161 tumor mice; type: in vivo, mouse; parameters: fluorescence in all other tissues except tumors: dose or concentration left out as unconfirmed; details: for fluorescent peptide in C8161 tumors and control organs: fluorescein-conjugate peptide i.v., 2 hrs circulation
Protocol: (§3) The frozen sections were prepared for immunohistological analysis.

[10] = system: KRIB tumors; assay: Fluorescein-labeled LSD peptide homing to KRIB tumors; type: in vivo, mouse; details: fluorescein-labeled peptide i.v.
Protocol: as §3

[11] = molecular target: T1, CXCR4 (Homo sapiens, UniProt P61073); assay: Phage binding to CXCR4-transfected 293T cells
T1 construct: expressed in transfected cells; host or cells: 293T cells, transient transfection with FuGene 6
T1 sequence (P61073 whole entry, species assumed): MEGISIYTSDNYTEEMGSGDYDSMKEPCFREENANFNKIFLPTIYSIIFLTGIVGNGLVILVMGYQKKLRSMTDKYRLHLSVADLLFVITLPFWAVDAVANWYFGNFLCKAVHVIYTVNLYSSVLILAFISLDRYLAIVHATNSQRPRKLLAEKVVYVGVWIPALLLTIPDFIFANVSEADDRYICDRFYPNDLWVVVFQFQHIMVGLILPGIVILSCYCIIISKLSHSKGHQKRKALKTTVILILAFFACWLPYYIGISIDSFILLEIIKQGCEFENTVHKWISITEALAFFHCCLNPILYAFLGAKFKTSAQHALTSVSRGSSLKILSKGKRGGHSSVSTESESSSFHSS
Protocol: The 293T cells were transfected with plasmids encoding CXCR4 (Helbig et al., 2003) or VEGFR2 (Borges et al., 2000) using FuGene 6 transfection reagent (Roche Diagnostics, Indianapolis, Ind.). Briefly, plasmid (10 μg) was mixed with 900 μl of serumfree DMEM and 50 μl of FuGene and incubated for 15 min at room temperature before adding the mixture to the cells. The cells were detached using EDTA after 48 hrs post transfection and washed with PBS containing 1% BSA. Phage (5×10^9 pfu) were incubated with the transfected cells and bound phage were rescued and titrated. For competitive binding assay, the cognate peptide (150 μg/ml) or antibody (50 μg/ml) was added during incubating of the phage with cells. Targeted proapoptotic peptide treatment of tumor-bearing mice Prostate cancer model. Orthotopic xenografted prostate tumors were established by injecting 1×10^6 PPC1 human prostate cancer cells into the mouse prostate. Fifteen days post inoculation, the mice were intravenously injected with D(KLAKLAK)2-CREAGRKAC (SEQ ID NO:41), an equimolar mixture of D(KLAKLAK)2 (SEQ ID NO:19) and CREAGRKAC (SEQ ID NO:6), or PBS. Biweekly injections of 100 μg/dose/mouse were given for three weeks. Melanoma model. Nude BALB/c mice were subcutaneously injected with 1×10^6 C8161 human melanoma cells. Treatment started when mean tumor volumes reached about 100 mm3. Mice with size-matched tumors were randomized into three groups. The therapeutic group received a chimera of tumor homing peptide with the proapoptotic motif (D(KLAKLAK)2-CLSDCGKRKC; SEQ ID NO:42). The control groups received an equimolar mixture of CLSDGKRKC (SEQ ID NO:4) and D(KLAKLAK)2 (SEQ ID NO:19), or PBS alone. The tumor-bearing mice were intravenously injected with 200 μg/dose/mouse once a week for three weeks. The mice were monitored for weight loss, and tumors were dissected and weighed at the termination of the experiment. Histological analysis was performed to evaluate the density of tumor lymphatics and blood vessels. The animal experiments reported here were approved by The Burnham Institute Animal Research Committee.

[12] = molecular target: T2, VEGFR2 (Homo sapiens, UniProt P35968); assay: Phage binding to VEGFR2-transfected 293T cells
T2 construct: expressed in transfected cells; host or cells: 293T cells, transient transfection with FuGene 6
T2 sequence (P35968 20-1356, species assumed): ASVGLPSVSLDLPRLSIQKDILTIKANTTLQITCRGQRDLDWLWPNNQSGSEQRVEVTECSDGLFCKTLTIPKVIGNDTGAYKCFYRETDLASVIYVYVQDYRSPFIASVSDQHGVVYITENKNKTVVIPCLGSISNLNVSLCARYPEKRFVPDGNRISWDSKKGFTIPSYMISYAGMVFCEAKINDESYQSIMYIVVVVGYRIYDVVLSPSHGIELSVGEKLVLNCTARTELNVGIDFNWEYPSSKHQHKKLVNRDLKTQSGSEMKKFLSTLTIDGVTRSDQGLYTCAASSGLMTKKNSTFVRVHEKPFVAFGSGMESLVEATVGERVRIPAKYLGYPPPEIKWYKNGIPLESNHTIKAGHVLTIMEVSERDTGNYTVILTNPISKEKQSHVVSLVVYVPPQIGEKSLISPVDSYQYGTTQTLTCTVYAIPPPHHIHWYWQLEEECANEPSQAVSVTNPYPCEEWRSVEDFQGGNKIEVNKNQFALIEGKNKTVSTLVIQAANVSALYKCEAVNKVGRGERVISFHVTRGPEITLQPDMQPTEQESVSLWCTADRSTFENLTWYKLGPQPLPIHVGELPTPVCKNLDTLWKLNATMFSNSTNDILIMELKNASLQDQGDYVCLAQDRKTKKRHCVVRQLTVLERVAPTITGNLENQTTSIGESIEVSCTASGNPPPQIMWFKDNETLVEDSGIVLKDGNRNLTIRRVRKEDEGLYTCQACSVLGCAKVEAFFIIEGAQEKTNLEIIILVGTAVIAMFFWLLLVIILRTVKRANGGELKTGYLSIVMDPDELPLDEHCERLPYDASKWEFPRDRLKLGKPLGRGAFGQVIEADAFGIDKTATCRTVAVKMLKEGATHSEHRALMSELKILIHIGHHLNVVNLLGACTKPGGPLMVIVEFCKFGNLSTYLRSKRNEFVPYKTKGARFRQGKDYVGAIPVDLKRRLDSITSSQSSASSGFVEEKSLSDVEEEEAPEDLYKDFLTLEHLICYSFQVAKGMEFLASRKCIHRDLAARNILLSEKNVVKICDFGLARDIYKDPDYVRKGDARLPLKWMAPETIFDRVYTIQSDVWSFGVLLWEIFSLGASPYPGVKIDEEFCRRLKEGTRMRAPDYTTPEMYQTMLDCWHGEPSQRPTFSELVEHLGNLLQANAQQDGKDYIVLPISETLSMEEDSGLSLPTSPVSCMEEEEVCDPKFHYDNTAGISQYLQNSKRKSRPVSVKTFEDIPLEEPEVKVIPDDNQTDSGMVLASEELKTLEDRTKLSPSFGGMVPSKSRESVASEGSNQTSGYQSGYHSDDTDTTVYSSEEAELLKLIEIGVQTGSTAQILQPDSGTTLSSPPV
Protocol: The 293T cells were transfected with plasmids encoding CXCR4 (Helbig et al., 2003) or VEGFR2 (Borges et al., 2000) using FuGene 6 transfection reagent (Roche Diagnostics, Indianapolis, Ind.). Briefly, plasmid (10 μg) was mixed with 900 μl of serumfree DMEM and 50 μl of FuGene and incubated for 15 min at room temperature before adding the mixture to the cells. The cells were detached using EDTA after 48 hrs post transfection and washed with PBS containing 1% BSA. Phage (5×10^9 pfu) were incubated with the transfected cells and bound phage were rescued and titrated. For competitive binding assay, the cognate peptide (150 μg/ml) or antibody (50 μg/ml) was added during incubating of the phage with cells. Targeted proapoptotic peptide treatment of tumor-bearing mice Prostate cancer model. Orthotopic xenografted prostate tumors were established by injecting 1×10^6 PPC1 human prostate cancer cells into the mouse prostate. Fifteen days post inoculation, the mice were intravenously injected with D(KLAKLAK)2-CREAGRKAC (SEQ ID NO:41), an equimolar mixture of D(KLAKLAK)2 (SEQ ID NO:19) and CREAGRKAC (SEQ ID NO:6), or PBS. Biweekly injections of 100 μg/dose/mouse were given for three weeks. Melanoma model. […] The mice were monitored for weight loss, and tumors were dissected and weighed at the termination of the experiment. […]

[13] = system: the other tumors, including the skin cancers; assay: Fluorescein-labeled LSD peptide homing to other tumors; type: in vivo, mouse; details: fluorescein-labeled peptide i.v.
Protocol: as §3

[14] = system: K14-HPV16/E2 cervical lesions; assay: Distribution of fluorescent peptides in K14-HPV16/E2 mice with cervical lesions; type: in vivo, mouse; details: labeled peptide i.v.
Protocol: as §3

[15] = system: PPC1, M12, DU145, and LNCaP orthotopic xenografts; assay: Fluorescein-conjugated REA peptide homing to orthotopic human prostate cancer xenografts; type: in vivo, mouse
Protocol: Custom immunization to produce a rabbit antiserum against mouse Prox-1 was performed by Proteintech Inc. New Zealand White rabbits were immunized with a fusion protein of GST-C-terminal fragment of Prox-1 protein. The antibody was affinity purified on the fusion protein and absorbed with GST. […] Antibodies against the lymphatic markers anti-LYVE-1 (Laakkonen et al., 2002) and anti-podoplanin (kindly provided by T. Petrova and K. Alitalo), rat monoclonal anti-mouse CD31 (BD Pharmingen), rat anti-mouse MECA-32 (Pharmingen), rabbit polyclonal anti-T7 phage, and rat anti-mouse VEGFR3 were used for immunohistochemical staining of frozen tissue sections as described (Joyce et al., 2003; Laakkonen et al., 2002). The corresponding secondary antibodies were added and incubated for 1 hr at room temperature: AlexaFluor-488 goat anti-rat or rabbit IgG (1:1000; Molecular Probes, Eugene, Oreg.), AlexaFluor-594 goat anti-rat or rabbit IgG (1:1000, Molecular Probes), AlexaFluor-594 donkey anti-mouse or goat IgG (1:1000, Molecular Probes), and AlexaFluor-488 donkey anti-mouse or goat IgG (1:1000; Molecular Probes), respectively. The slides were washed three times with PBS and mounted in Vectashield Mounting Medium with DAPI (Vector Laboratories, Burlingame, Calif.). […]

[16] = phage homing in vivo, C8161 (s.c.) xenografts
[17] = phage homing in vivo, KRIB xenografts
[18] = phage homing in vivo, K14-HPV16 skin cancer
[19] = phage homing in vivo, MDA-MB-435 orthotopic xenografts
[20] = phage homing in vivo, MMTV-PyMT breast tumors
[21] = phage homing in vivo, PPC1 orthotopic xenografts
[22] = phage homing in vivo, TRAMP prostate tumors
[23] = fluorescein-conjugate peptide, C8161 tumor sections

Substance: CLSDGKRKC [homing peptide for C8161 melanoma lymphatics]
- phage homing to C8161 tumors (in words) [1]: Robust phage homing
- phage homing to C8161 tumors (in words) ([1]; listed as CLSDGKRKC): homed selectively to the tumors
- phage homing to C8161 tumors (in words) ([1]; listed as LSD phage): significantly higher than in normal tissues
- relative efficiency of tumor homing of the two phage ([1]; i.v. injection, nude mice bearing C8161 tumors): about twice as efficient as CLDGGRPKC
- Fold over control phage [1, 16]: 39 fold
- Specific Homing [1, 16]: Yes
- phage homing to KRIB xenografts (in words) [2]: slightly positive
- phage homing to KRIB xenografts (in words) ([2]; listed as LSD phage): possible low-level homing
- Fold over control phage [2, 17]: 7^‡ fold
- Specific Homing [2, 17]: Yes
- homing to K14-HPV16 skin cancers (in words) ([3]; i.v. injection, K14-HPV16 mice): possible low-level homing
- Fold over control phage [3, 18]: 5 fold
- Specific Homing [3, 18]: No
- phage homing to MDA-MB-435 tumors (in words) ([4]; i.v. injected phage, listed as LSD phage): did not appreciably home
- Fold over control phage [4, 19]: 3 fold
- Specific Homing [4, 19]: No
- phage homing to MMTV-PyMT breast tumors (in words) ([5]; i.v. injected phage): did not appreciably home
- Fold over control phage [5, 20]: 3 fold
- Specific Homing [5, 20]: No
- phage homing to PPC1 orthotopic xenografts (in words) ([6]; i.v. injected phage): did not appreciably home
- Fold over control phage [6, 21]: 3 fold
- Specific Homing [6, 21]: No
- phage homing to TRAMP prostate tumors (in words) ([7]; i.v. injected phage): did not appreciably home
- Fold over control phage [7, 22]: 1 fold
- Specific Homing [7, 22]: No
- binding to C8161 tumor cell suspensions relative to control phage [8]: 100 fold
- binding to cell suspensions prepared from C8161 tumors (in words) [8]: bound to cell suspensions prepared from C8161 tumors
- fluorescent peptide in C8161 tumors and control organs [9]: detected within the tumors, but not in control organs
- co-localization with blood vessel markers MECA-32 and CD31 [9, 23]: no co-localization
- co-localization with lymphatic vessel markers podoplanin, Prox-1, LYVE-1, VEGFR3 [9, 23]: co-localization of the LSD fluorescence with them
- lymphatic vessels positive for the peptide that were also positive for podoplanin ([9]; fluorescein-conjugate peptide, C8161 tumors): 85%
- fluorescent peptide homing to KRIB tumors (in words) [10]: slightly positive
- phage binding to CXCR4-transfected 293T cells (in words) ([11]; 293T cells): binds to 293T cells transfected with CXCR4
- phage binding to CXCR4-transfected 293T cells versus mock- or VEGFR2-transfected cells ([11]; 293T cells): 16 fold
- inhibition of LSD phage binding to CXCR4-transfected 293T cells ([11]; peptide 150 μg/ml co-incubated with phage, listed as LSD peptide): inhibits LSD-phage binding; also recorded: inhibited the binding
- phage binding to VEGFR2-transfected 293T cells (in words) [12]: not to cells transfected with VEGFR2

Substance: FITC-LSD: fluorescein-conjugated LSD peptide (CLSDGKRKC) ({FITC}-CLSDGKRKC; cysteine pairing not given here)
- fluorescence in kidneys ([9]; FITC-LSD (150 mg) i.v., 2 hrs): A few spots of LSD fluorescence
- fluorescence in all other tissues except tumors ([9]; FITC-LSD i.v., 2 hrs): negative
- fluorescent peptide in C8161 tumors and control organs [9]: Strong LSD peptide fluorescence
- fluorescent peptide homing to KRIB tumors (in words) [10]: weakly positive
- fluorescent peptide homing to the other tumors, including skin cancers [13]: negative

Substance: FITC-REA: fluorescein-labeled REA peptide (CREAGRKAC) (not fully specified (N-terminus); cysteine pairing not given here; also: FITC label, position not given here)
- fluorescent peptide in K14-HPV16/E2 cervical lesions/tumors (in words) [14]: homed to a lesser extent
- fluorescent peptide in PPC1, M12, DU145, LNCaP orthotopic xenografts ([15]; fluorescein-conjugated peptide): positive
- co-localization with lymphatic vessels in orthotopic prostate tumor xenografts ([15]; immunohistochemical analysis): co-localized with lymphatic vessels
